Experimental data taken from patent publication US20240391875A1, “ISOQUINOLINONES AND QUINOLINONES AS MODULATORS OF POLRMT” (Pretzel Therapeutics, Inc., priority 2021, published 2024).

The compounds below were run against POLRMT (Homo sapiens, UniProt O00411) (assay: homogeneous TR-FRET assay of mitochondrial transcription (inhibition of POLRMT)). Conditions: isoquinolinone compounds (Table 1).
Sequence of POLRMT (O00411 42-1230): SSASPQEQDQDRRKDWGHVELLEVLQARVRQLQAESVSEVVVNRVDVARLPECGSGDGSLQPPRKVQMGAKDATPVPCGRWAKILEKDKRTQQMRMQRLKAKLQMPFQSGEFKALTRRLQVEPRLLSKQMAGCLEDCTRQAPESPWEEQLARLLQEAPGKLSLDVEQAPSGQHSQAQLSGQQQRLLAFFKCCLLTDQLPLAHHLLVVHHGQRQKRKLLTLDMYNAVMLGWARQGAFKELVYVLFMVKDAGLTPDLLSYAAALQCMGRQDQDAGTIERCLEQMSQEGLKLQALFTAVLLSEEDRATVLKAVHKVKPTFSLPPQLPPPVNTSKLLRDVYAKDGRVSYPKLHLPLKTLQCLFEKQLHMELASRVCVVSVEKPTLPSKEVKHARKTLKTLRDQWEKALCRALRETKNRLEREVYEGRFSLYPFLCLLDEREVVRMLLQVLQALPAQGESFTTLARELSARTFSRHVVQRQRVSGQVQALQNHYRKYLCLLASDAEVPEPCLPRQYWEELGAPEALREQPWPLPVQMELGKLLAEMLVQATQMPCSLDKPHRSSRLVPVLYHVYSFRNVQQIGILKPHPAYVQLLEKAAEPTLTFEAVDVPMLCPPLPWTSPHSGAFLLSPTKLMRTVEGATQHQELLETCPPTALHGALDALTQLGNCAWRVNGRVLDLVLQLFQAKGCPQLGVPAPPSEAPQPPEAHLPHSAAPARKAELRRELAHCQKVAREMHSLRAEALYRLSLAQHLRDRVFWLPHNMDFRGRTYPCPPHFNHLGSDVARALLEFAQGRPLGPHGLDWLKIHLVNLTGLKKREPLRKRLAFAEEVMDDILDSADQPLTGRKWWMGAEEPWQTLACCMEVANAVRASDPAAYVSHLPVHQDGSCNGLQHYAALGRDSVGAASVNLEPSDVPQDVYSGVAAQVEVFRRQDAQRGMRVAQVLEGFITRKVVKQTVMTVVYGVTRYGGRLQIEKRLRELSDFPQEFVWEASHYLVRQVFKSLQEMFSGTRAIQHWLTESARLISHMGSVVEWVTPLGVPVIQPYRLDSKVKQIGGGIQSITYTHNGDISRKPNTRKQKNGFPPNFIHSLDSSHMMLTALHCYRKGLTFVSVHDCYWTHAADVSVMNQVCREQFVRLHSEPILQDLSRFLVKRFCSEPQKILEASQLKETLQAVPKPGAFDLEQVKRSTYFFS
Format: biochemical
Protocol: The inhibitory activity of the compounds of the present invention against POLRMT were determined by assays based on Bergbrede, T., et al., “An adaptable high-throughput technology enabling the identification of specific transcription modulators,” SLAC Discov., 22, 378-386 (2017).
The ability of some compounds of the present invention to inhibit POLRMT were determined in a homogeneous TR-FRET Assay using high-throughput screening in a 384-well plate format. This method is used to monitor the activity of mitochondrial transcription through measurement of its product, a 407 bp long RNA transcript. Detection of the product is facilitated by hybridization of two DNA-oligonucleotide probes to specific and adjacent sequences within the RNA product sequence. Upon annealing of the probes, two fluorophores are coupled directly to an acceptor nucleotide probe (ATTO647, 5′), or introduced via a coupled streptavidin with a biotinylated donor nucleotide probe (Europium cryptate) that is brought into sufficient proximity to serve as a fluorescence-donor-acceptor pair. Thus, a FRET signal at 665 nm is generated upon excitation at 340 nm.
Proteins used as transcription factors (POLRMT: NP_005026.3, TFAM: NP_003192.1, TFB2M: NP_071761.1) are diluted from their stocks to working concentrations of 1 μM, 20 μM and 4 μM respectively, in a dilution buffer containing 20 mM Tris-HCl (pH 8.0), 200 mM NaCl, 10% (v/v) glycerol, 1 mM Dithiothreitol (DTT), 0.5 mM EDTA.
DNA template is a pUC18 plasmid with the mitochondrial light strand promotor sequence (1-477) cloned between HindIII and BamHI sites. The DNA template is restriction linearized proximal to the promotor 3′-end (pUC-LSP).
The reaction mixture (10 uL) containing 7.5 nM POLRMT, 15 nM of TFB2M, 30 nM of TFAM, 0.5 nM of DNA template and 500 μM nucleotide triphosphate mix (NTPs) in a reaction buffer (containing 10 mM Tris-HCl (pH 7.5), 10 mM MgCl2, 40 mM NaCl, 10 mM DTT, 0.005% (w/v) Tween-20, 160 units/ml Rnase inhibitor and 0.1 mg/mL BSA) are dispensed to compounds in microplates, using a Thermo Multidrop® dispenser, and incubated at 37° C. in a VWR INCU-Line incubator for 60 minutes after mixing. No nucleotide triphosphate mix is added to negative control samples. Microplates with compounds to be tested in the assay are prepared from 10 mM compound stocks in 100% DMSO, equal amounts of DMSO without any compound are added to positive control and negative control samples.
During the incubation, a mix of the detection reagents is prepared in a buffer such that the enzymatic reaction is terminated due to chelating of Mg-ions and increased ionic strength, containing 50 mM Tris-HCl (pH 7.5), 700 mM NaCl, 20 mM EDTA, and 0.010% (w/v) Tween-20. Europium-streptavidin is pre-incubated with a 200-fold molar excess of a random sequence oligonucleotide to block unspecific binding of oligo, for two hours at ambient temperature in the dark. Afterwards, the blocked Europium-streptavidin is kept on ice until use.
At the end of the enzymatic reaction time, 5 μL detection oligo mix in the detection buffer is added, and assay plates are mixed and kept at ambient temperature for one hour, protected from light. The concentration of the Acceptor nucleotide oligo (e.g., ATTO647N-5′-[…]-3′) and Donor nucleotide oligo (e.g., bio-5′-AACACATCTCT(-bio)GCCAAACCCCA-bio-3′) in each assay well is 1 nM, and 3 nM, respectively.
After incubation with oligo mix, 5 μL of pre-blocked Europium-streptavidin reagent is dispensed to each assay well, assay plates are again mixed and kept at ambient temperature for one hour, protected from light.
The generated signal is measured with BMG Pherastar microtiter plate reader with a TRF light unit, using excitation at 340 nm, an integration time of 200 μs, and a delay time of 100 μs, before detection at 620 nm and 665 nm. The ratio of donor- and acceptor-fluorescence is used as a measure of the generated transcript product (i.e. enzymatic activity).
Compound CC(=O)N1CC[C@H](Oc2ccc3c(-c4ccccc4C)c[nH]c(=O)c3c2)C1 [Example 17, (S)-7-((1-acetylpyrrolidin-3-yl)oxy)-4-(o-tolyl)isoquinolin-1(2H)-one] has an IC50 of 82 µM.
Cc1ccccc1-c1c[nH]c(=O)c2cc(OCC#N)ccc12 [Example 36, 2-((1-oxo-4-(o-tolyl)-1,2-dihydroisoquinolin-7-yl)oxy)acetonitrile] showed an IC50 of 0.2 µM.
In the case of COCC(Oc1ccc2c(-c3ccccc3C)c[nH]c(=O)c2c1)C(=O)N(C)C (single isomer, unassigned) [Example 55, 3-methoxy-N,N-dimethyl-2-((1-oxo-4-(o-tolyl)-1,2-dihydroisoquinolin-7-yl)oxy)propenamide], the IC50 is reported as 2 µM.
In the case of Cc1c(F)cccc1-c1c[nH]c(=O)c2cc(OCC(N)=O)ccc12 [Example 136, 2-((4-(3-fluoro-2-methylphenyl)-1-oxo-1,2-dihydroisoquinolin-7-yl)oxy)acetamide], the IC50 is reported as 3 µM.
Work on Cc1ccccc1-c1c[nH]c(=O)c2cc(OC(C)C(N)=O)ccc12 (single isomer, unassigned) [Example 72] yielded an IC50 of 17 µM.
CC(C#N)Oc1ccc2c(-c3ccccc3Cl)c[nH]c(=O)c2c1 (single isomer, unassigned) [Example 58, 2-((4-(2-chlorophenyl)-1-oxo-1,2-dihydroisoquinolin-7-yl)oxy)propanenitrile] gave an IC50 of 2 µM.
Work on CC(=O)Nc1ccc2c(-c3ccccc3C)c[nH]c(=O)c2c1 [Example 31, N-(1-oxo-4-(o-tolyl)-1,2-dihydroisoquinolin-7-yl)acetamide] yielded an IC50 of 8 µM.
CCC(=O)N1CCN(C(=O)[C@@H](C)Oc2ccc3c(-c4ccc(F)cc4Cl)c[nH]c(=O)c3c2)CC1 [Example 117, (R)-4-(2-chloro-4-fluorophenyl)-7-((1-oxo-1-(4-propionylpiperazin-1-yl)propan-2-yl)oxy)isoquinolin-1(2H)-one] was tested, and the IC50 was 0.5 µM.
In the case of Cc1ccccc1-c1c[nH]c(=O)c2cc(CC(C)C(=O)N3CCCCC3)ccc12 (stereo not shown) [Example 41, 7-(2-methyl-3-oxo-3-(piperidin-1-yl)propyl)-4-(o-tolyl)isoquinolin-1(2H)-one], the IC50 is reported as 1 µM.
For CC(=O)N(C)Cc1ccc2c(-c3ccccc3C)c[nH]c(=O)c2c1 [Example 45, N-methyl-N-((1-oxo-4-(o-tolyl)-1,2-dihydroisoquinolin-7-yl)methyl)acetamide], the IC50 was over 100 µM.
C[C@@H](Oc1ccc2c(-c3ccc(F)cc3Cl)c[nH]c(=O)c2c1)C(=O)N1CCCC(F)(F)C1 [Example 84, (R)-4-(2-chloro-4-fluorophenyl)-7-((1-(3,3-difluoropiperidin-1-yl)-1-oxopropan-2-yl)oxy)isoquinolin-1(2H)-one] showed an IC50 of 0.08 µM.
C[C@@H](Oc1ccc2c(-c3ccc(F)cc3Cl)c[nH]c(=O)c2c1)C(=O)N1CCOCC1(C)C [Example 107, (R)-4-(2-chloro-4-fluorophenyl)-7-((1-(3,3-dimethylmorpholino)-1-oxopropan-2-yl)oxy)isoquinolin-1(2H)-one] was tested, and the IC50 was 0.2 µM.
Work on COc1ccc2c(-c3ccc(F)cc3Cl)c[nH]c(=O)c2c1 [Example 1, 4-(2-chloro-4-fluorophenyl)-7-methoxyisoquinolin-1(2H)-one] yielded an IC50 of 10 µM.
Work on Cc1ccccc1-c1c[nH]c(=O)c2cc(OC(C)C(N)=O)ccc12 (stereo not shown) [Example 71, 2-((1-oxo-4-(o-tolyl)-1,2-dihydroisoquinolin-7-yl)oxy)propanamide] yielded an IC50 of 1 µM.
Cc1ccccc1-c1c[nH]c(=O)c2cc(CO)ccc12 [Example 15, 7-(hydroxymethyl)-4-(o-tolyl)isoquinolin-1(2H)-one] gave an IC50 of 51 µM.
Work on COCC(C#N)Oc1ccc2c(-c3ccccc3C)c[nH]c(=O)c2c1 (single isomer, unassigned) [Example 76, 3-methoxy-2-((1-oxo-4-(o-tolyl)-1,2-dihydroisoquinolin-7-yl)oxy)propanenitrile] yielded an IC50 of 0.2 µM.
For CC(=O)N1CCCC(Oc2ccc3c(-c4ccccc4C)c[nH]c(=O)c3c2)C1 (stereo not shown) [Example 42, 7-((1-acetylpiperidin-3-yl)oxy)-4-(o-tolyl)isoquinolin-1(2H)-one], the IC50 was 7 µM.
C[C@@H](Oc1ccc2c(-c3ccc(F)cc3Cl)c[nH]c(=O)c2c1)C(=O)N1CCN(CC(F)(F)F)CC1 [Example 118, (R)-4-(2-chloro-4-fluorophenyl)-7-((1-oxo-1-(4-(2,2,2-trifluoroethyl)piperazin-1-yl)propan-2-yl)oxy)isoquinolin-1(2H)-one] was tested, and the IC50 was 0.4 µM.
CCc1ccccc1-c1c[nH]c(=O)c2cc(OCC#N)ccc12 [Example 137, 2-((4-(2-ethylphenyl)-1-oxo-1,2-dihydroisoquinolin-7-yl)oxy)acetonitrile] showed an IC50 of 0.3 µM.
With Cc1ccccc1-c1c[nH]c(=O)c2cc(NC(C)C(=O)N3CCOCC3)ccc12 (stereo not shown) [Example 46] the IC50 was 2 µM.
Compound CC(C#N)Oc1ccc2c(-c3ccccc3Cl)c[nH]c(=O)c2c1 (single isomer, unassigned) [Example 57, 2-((4-(2-chlorophenyl)-1-oxo-1,2-dihydroisoquinolin-7-yl)oxy)propanenitrile] has an IC50 of 0.3 µM.
C[C@@H](Oc1ccc2c(-c3ccc(F)cc3Cl)c[nH]c(=O)c2c1)C(=O)N1CCO[C@H](CO)C1 [Example 106, 4-(2-chloro-4-fluorophenyl)-7-(((R)-1-((S)-2-(hydroxymethyl)morpholino)-1-oxopropan-2-yl)oxy)isoquinolin-1(2H)-one] showed an IC50 of 0.6 µM.
For Cc1ccccc1-c1c[nH]c(=O)c2cc(N(C)CC(N)=O)ccc12 [Example 66, 2-(methyl(1-oxo-4-(o-tolyl)-1,2-dihydroisoquinolin-7-yl)amino)acetamide], the IC50 was 5 µM.
For Cc1ccccc1-c1c[nH]c(=O)c2cc(OC(C)(C)C(=O)O)ccc12 [Example 119, 2-methyl-2-((1-oxo-4-(o-tolyl)-1,2-dihydroisoquinolin-7-yl)oxy)propanoic acid], the IC50 was 0.7 µM.
For Cc1ccccc1-c1c[nH]c(=O)c2cc(O[C@H](C)C(=O)N3CCCC(F)(F)C3)ccc12 [Example 81, (R)-7-((1-(3,3-difluoropiperidin-1-yl)-1-oxopropan-2-yl)oxy)-4-(o-tolyl)isoquinolin-1(2H)-one], the IC50 was 0.03 µM.
COCC(=O)Nc1ccc2c(-c3ccccc3C)c[nH]c(=O)c2c1 [Example 32, 2-methoxy-N-(1-oxo-4-(o-tolyl)-1,2-dihydroisoquinolin-7-yl)acetamide] showed an IC50 of 22 µM.
For Cc1ccccc1-c1c[nH]c(=O)c2cc(OC(C)C(F)(F)F)ccc12 (stereo not shown) [Example 61, 4-(o-tolyl)-7-((1,1,1-trifluoropropan-2-yl)oxy)isoquinolin-1(2H)-one], the IC50 was 0.4 µM.
In the case of Cc1ccccc1-c1c[nH]c(=O)c2cc(O[C@H](C)C(=O)N3CCC[C@H](C(=O)O)C3)ccc12 [Example 22, (S)-1-((R)-2-((1-oxo-4-(o-tolyl)-1,2-dihydroisoquinolin-7-yl)oxy)propanoyl)piperidine-3-carboxylic acid], the IC50 is reported as 0.04 µM.
Cc1ccccc1-c1c[nH]c(=O)c2cc(O[C@H](C)C(=O)N3CCOCC3)ccc12 [Example 78, (R)-7-((1-morpholino-1-oxopropan-2-yl)oxy)-4-(o-tolyl)isoquinolin-1(2H)-one] was tested, and the IC50 was 0.03 µM.

Same assay, conditions: quinolinone compounds (Table 2)
Cc1ccccc1-c1cc(=O)[nH]c2cc(OCC(C)C)ccc12 [Example Q12, 7-isobutoxy-4-(o-tolyl)quinolin-2(1H)-one] was tested, and the IC50 was 18 µM.
Work on O=c1cc(-c2ccc(F)cc2Cl)c2ccc(O)cc2[nH]1 [Example Q2, 4-(2-chloro-4-fluorophenyl)-7-hydroxyquinolin-2(1H)-one] yielded an IC50 of over 100 µM.
